Laboratory results: ChEMBL document CHEMBL3390832 (Medchemcomm, 2011)

Experiments:
Glutamate NMDA receptor = assay: Displacement of [3H]CGP-39653 from NMDA receptor in rat brain cortical membranes; assay type: cell membranes
[1] = target: T1, Metabotropic glutamate receptor 3 (Homo sapiens, UniProt Q14832); assay: Agonist activity at human mGluR3 receptor expressed in HEK cells; assay type: cell-based, HEK293
[2] = target: T1, Metabotropic glutamate receptor 3; assay: Binding affinity to human mGluR3 receptor expressed in HEK cells; assay type: cell-based, HEK293
[3] = target: T2, G-protein coupled receptor family C group 6 member A (Mus musculus, UniProt Q8K4Z6); assay: Agonist activity at mouse GPRC6A expressed in human tsA201 cells coexpressing GalphaqG66D after 30 mins by inositol phosphate turnover assay; assay type: functional, cell-based
T2 sequence (Q8K4Z6 whole entry): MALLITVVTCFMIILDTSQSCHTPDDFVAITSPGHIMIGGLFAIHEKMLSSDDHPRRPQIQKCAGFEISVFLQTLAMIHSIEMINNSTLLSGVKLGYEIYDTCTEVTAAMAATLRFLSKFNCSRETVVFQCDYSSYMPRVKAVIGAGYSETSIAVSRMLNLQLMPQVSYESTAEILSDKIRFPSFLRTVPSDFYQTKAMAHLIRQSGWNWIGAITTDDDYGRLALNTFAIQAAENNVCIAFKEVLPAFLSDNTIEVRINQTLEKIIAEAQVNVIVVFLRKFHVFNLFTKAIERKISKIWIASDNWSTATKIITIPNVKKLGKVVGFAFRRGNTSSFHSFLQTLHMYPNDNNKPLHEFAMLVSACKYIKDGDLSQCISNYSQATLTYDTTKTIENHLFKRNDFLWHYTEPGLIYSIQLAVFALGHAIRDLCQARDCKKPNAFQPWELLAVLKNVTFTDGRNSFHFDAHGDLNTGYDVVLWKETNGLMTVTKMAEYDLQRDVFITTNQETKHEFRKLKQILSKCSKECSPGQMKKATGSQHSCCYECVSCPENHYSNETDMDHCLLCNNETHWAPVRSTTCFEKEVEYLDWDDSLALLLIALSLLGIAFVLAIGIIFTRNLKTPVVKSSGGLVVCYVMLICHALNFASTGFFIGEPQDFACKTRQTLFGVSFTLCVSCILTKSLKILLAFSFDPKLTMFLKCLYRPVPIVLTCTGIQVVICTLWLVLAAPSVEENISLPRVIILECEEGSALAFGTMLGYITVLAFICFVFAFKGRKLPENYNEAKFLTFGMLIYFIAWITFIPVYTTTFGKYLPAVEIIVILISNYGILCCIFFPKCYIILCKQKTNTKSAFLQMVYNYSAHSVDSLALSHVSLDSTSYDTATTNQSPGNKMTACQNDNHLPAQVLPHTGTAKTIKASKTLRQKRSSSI

[4] = target: T3, Metabotropic glutamate receptor 7 (Homo sapiens, UniProt Q14831); assay: Agonist activity at human mGluR7 receptor expressed in HEK cells; assay type: cell-based, HEK293
T3 sequence (Q14831 whole entry): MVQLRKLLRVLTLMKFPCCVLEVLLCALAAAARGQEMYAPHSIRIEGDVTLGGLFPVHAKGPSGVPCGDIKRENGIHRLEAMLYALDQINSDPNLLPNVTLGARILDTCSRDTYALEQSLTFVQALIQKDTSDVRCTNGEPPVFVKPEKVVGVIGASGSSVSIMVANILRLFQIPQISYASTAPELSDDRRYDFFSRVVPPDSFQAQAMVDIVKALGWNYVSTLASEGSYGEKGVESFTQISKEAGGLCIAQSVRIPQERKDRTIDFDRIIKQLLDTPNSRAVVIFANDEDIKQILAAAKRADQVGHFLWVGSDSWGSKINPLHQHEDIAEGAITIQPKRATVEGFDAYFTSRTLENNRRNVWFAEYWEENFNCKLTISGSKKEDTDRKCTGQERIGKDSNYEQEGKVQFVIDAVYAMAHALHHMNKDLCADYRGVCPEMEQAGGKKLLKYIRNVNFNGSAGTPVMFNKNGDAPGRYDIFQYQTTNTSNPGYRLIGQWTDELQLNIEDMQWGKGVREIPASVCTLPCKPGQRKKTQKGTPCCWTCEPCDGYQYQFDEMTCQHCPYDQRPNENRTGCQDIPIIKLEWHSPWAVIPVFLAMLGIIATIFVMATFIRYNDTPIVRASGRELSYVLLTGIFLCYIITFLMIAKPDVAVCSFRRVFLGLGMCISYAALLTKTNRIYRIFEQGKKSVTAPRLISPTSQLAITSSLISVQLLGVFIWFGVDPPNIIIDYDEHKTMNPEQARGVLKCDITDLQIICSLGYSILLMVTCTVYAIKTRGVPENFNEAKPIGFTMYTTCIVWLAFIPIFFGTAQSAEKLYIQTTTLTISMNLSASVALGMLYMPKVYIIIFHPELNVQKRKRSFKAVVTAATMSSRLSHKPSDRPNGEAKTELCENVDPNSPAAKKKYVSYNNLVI

[5] = target: T3, Metabotropic glutamate receptor 7; assay: Binding affinity to human mGluR7 receptor expressed in HEK cells; assay type: cell-based, HEK293

T1 sequence (Q14832 whole entry): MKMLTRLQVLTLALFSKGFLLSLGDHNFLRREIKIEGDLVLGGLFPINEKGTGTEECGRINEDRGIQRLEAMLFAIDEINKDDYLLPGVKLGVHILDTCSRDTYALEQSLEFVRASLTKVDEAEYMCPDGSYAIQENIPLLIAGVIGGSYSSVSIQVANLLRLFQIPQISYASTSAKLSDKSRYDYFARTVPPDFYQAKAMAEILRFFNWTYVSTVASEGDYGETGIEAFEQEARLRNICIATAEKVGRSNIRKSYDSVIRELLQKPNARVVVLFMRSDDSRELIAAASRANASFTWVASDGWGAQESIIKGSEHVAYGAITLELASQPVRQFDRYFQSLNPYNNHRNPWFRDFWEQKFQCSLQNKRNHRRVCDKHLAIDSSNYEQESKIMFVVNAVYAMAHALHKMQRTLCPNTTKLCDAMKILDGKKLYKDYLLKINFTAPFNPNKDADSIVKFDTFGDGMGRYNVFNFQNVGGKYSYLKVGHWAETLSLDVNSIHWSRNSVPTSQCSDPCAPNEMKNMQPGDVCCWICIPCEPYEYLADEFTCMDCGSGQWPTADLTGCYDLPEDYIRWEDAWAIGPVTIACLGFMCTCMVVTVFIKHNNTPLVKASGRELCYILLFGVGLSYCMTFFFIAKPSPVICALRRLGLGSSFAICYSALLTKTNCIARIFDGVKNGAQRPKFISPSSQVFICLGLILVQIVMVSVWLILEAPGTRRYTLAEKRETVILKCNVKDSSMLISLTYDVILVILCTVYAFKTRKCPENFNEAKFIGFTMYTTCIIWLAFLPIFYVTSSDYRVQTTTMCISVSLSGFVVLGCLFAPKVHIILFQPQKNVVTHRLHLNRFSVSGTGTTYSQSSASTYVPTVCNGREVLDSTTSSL

Row | Structure (SMILES) | Ki (Glutamate NMDA receptor) [µM] | EC50 [1] [µM] | also measured
1 | N[C@@H](CCc1nsnc1O)C(=O)O | > 100 |  | 
2 | N[C@H](CCc1nsnc1O)C(=O)O | > 100 |  | 
3 | N[C@@]1(C(=O)O)C[C@@H]1CC(=O)O (relative stereo) | 77 | 200 | Ki [2]: 200 µM
4 | N[C@@]1(C(=O)O)C[C@H]1CC(=O)O (relative stereo) | 72 | > 1000 | 
5 | N[C@]1(C(=O)O)C[C@H]1Cc1nsnc1O (relative stereo) | 19 |  | 
6 | N=C(N)NCCC[C@H](N)C(=O)O [ARGININE] |  |  | EC50 [3]: 284 µM
7 | N[C@@H](CCC(=O)O)C(=O)O [GLUTAMIC ACID] |  | 0.06 | EC50 [4]: 1.18 mM; Ki [2]: 0.0575 µM; Ki [5]: 1.17 mM
